The term Ki denotes the dissociation constant of the complex between target and ligand, obtained from inhibition or displacement. A higher Ki goes with weaker binding.

Some targets named below: Histamine H1 receptor (Homo sapiens, UniProt P35367); D(4) dopamine receptor (Homo sapiens, UniProt P21917); D(1A) dopamine receptor (Homo sapiens, UniProt P21728); D(1B) dopamine receptor (Homo sapiens, UniProt P21918); D(3) dopamine receptor (Rattus norvegicus, UniProt P19020).
For assay [1], the target named is 5-hydroxytryptamine receptor 1A (Homo sapiens, UniProt P08908).
Sequence of 5-hydroxytryptamine receptor 1A (P08908 whole entry): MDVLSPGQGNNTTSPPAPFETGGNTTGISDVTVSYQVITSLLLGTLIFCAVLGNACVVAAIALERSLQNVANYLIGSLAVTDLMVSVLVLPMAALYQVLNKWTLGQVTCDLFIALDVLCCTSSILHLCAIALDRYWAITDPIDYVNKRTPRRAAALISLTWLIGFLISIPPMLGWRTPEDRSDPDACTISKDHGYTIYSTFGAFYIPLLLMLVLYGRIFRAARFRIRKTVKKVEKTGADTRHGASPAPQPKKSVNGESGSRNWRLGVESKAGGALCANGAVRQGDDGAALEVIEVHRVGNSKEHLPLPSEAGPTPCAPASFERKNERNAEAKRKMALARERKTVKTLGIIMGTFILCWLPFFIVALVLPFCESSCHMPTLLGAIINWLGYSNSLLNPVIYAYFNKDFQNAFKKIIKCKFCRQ
Assay [2] concerns the target 5-hydroxytryptamine receptor 6 (Homo sapiens, UniProt P50406).
The target in assay [3] is 5-hydroxytryptamine receptor 2A (Rattus norvegicus, UniProt P14842).
Sequence of 5-hydroxytryptamine receptor 2A (P14842 whole entry): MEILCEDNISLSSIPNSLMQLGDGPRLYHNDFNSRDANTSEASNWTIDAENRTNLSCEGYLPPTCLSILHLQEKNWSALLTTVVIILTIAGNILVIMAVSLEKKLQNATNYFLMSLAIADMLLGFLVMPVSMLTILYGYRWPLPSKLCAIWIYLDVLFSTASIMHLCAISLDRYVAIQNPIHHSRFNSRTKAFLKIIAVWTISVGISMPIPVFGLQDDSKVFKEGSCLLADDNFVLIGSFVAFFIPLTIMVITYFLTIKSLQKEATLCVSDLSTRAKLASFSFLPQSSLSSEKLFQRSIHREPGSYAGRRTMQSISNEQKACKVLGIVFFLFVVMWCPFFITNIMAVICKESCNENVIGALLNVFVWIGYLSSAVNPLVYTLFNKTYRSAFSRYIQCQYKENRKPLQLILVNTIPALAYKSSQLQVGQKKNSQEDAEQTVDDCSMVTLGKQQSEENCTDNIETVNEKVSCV
Assay [4] addresses Sodium-dependent dopamine transporter (Homo sapiens, UniProt Q01959).
Assay [5] deals with Sodium-dependent serotonin transporter (Homo sapiens, UniProt P31645).
Assay [6] has as its target Sodium-dependent noradrenaline transporter (Homo sapiens, UniProt P23975).
For assay [7], the target named is 5-hydroxytryptamine receptor 2B (Homo sapiens, UniProt P41595).
Assay [8] addresses 5-hydroxytryptamine receptor 1B (Rattus norvegicus, UniProt P28564).
Assay [9] addresses Alpha-1A adrenergic receptor (Homo sapiens, UniProt P35348).
For assay [10], the target named is 5-hydroxytryptamine receptor 2C (Rattus norvegicus, UniProt P08909).
Sequence of 5-hydroxytryptamine receptor 2C (P08909 whole entry): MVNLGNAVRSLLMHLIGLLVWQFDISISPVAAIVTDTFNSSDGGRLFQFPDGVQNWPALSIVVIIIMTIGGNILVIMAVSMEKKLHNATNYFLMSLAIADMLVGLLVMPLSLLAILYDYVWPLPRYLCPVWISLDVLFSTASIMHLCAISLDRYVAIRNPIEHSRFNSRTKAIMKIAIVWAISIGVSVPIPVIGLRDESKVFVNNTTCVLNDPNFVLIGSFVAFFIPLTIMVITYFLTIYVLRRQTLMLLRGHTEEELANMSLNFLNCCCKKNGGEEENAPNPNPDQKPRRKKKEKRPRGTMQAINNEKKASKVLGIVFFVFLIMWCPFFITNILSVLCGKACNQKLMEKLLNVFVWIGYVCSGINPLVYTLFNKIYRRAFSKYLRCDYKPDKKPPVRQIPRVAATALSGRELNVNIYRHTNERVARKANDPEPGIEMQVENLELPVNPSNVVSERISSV
For assay [11], the target named is Alpha-2C adrenergic receptor (Homo sapiens, UniProt P18825).
Sequence of Alpha-2C adrenergic receptor (P18825 whole entry): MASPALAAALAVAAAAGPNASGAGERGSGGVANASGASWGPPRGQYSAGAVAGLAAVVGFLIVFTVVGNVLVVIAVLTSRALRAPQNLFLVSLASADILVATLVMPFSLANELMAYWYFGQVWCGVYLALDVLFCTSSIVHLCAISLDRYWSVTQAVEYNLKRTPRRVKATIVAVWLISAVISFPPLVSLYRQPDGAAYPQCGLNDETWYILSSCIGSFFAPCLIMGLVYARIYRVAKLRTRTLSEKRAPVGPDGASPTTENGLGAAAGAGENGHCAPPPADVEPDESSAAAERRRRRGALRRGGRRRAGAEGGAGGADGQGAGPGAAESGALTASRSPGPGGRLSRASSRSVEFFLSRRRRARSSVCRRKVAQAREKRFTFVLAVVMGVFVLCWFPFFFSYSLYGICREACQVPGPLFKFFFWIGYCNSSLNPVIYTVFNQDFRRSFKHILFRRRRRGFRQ
The target in assay [12] is Alpha-1B adrenergic receptor (Homo sapiens, UniProt P35368).
For assay [13], the target named is Alpha-2A adrenergic receptor (Homo sapiens, UniProt P08913).
Sequence of Alpha-2A adrenergic receptor (P08913 whole entry): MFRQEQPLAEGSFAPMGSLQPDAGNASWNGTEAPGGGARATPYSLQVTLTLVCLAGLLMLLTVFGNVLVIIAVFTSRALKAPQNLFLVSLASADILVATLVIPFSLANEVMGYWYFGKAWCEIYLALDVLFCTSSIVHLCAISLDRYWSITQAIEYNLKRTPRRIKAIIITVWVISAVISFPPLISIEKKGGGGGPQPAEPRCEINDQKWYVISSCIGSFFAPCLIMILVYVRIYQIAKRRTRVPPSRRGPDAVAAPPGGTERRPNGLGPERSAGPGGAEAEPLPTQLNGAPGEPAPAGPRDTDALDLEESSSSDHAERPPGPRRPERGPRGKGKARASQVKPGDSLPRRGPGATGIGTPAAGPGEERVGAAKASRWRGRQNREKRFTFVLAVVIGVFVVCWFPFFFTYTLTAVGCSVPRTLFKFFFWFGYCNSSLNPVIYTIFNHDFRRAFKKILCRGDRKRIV
The target in assay [14] is Muscarinic acetylcholine receptor M3 (Homo sapiens, UniProt P20309).
Assay [15] addresses 5-hydroxytryptamine receptor 5A (Homo sapiens, UniProt P47898).
Assay [16] addresses Muscarinic acetylcholine receptor M2 (Homo sapiens, UniProt P08172).
In assay [17] the target is Muscarinic acetylcholine receptor M1 (Homo sapiens, UniProt P11229).
The target of assay [18] is Muscarinic acetylcholine receptor M4 (Homo sapiens, UniProt P08173).
Assay [19] deals with Muscarinic acetylcholine receptor M5 (Homo sapiens, UniProt P08912).

Sequence of Sodium-dependent dopamine transporter (Q01959 whole entry): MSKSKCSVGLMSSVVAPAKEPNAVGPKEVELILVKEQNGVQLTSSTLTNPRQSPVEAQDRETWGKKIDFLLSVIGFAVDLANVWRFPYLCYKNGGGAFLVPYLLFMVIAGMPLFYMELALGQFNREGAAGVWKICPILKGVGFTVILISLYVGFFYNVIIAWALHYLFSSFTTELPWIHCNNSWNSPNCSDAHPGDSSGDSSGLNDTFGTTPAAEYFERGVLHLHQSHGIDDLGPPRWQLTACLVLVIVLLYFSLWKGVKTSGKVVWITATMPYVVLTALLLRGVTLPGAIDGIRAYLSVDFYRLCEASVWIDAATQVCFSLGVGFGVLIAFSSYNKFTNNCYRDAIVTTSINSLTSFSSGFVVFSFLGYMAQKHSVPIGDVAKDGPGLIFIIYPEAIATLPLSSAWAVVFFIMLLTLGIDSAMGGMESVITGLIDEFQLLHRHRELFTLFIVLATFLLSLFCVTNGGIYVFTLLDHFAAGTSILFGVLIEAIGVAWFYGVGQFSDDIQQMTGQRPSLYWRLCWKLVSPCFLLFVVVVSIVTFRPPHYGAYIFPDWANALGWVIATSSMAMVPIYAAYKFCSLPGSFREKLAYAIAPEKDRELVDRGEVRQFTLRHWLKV
Sequence of 5-hydroxytryptamine receptor 6 (P50406 whole entry): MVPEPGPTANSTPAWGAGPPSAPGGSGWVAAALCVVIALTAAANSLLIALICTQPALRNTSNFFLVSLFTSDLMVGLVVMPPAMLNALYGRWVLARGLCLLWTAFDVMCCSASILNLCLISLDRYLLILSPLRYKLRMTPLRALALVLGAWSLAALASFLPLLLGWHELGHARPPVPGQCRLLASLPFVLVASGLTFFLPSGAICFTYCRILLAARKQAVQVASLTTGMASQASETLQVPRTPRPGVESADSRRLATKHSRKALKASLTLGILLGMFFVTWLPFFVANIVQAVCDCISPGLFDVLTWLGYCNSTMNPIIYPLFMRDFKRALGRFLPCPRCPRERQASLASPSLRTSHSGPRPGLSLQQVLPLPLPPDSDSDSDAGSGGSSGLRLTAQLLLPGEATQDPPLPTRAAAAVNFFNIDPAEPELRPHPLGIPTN
Sequence of 5-hydroxytryptamine receptor 1B (P28564 whole entry): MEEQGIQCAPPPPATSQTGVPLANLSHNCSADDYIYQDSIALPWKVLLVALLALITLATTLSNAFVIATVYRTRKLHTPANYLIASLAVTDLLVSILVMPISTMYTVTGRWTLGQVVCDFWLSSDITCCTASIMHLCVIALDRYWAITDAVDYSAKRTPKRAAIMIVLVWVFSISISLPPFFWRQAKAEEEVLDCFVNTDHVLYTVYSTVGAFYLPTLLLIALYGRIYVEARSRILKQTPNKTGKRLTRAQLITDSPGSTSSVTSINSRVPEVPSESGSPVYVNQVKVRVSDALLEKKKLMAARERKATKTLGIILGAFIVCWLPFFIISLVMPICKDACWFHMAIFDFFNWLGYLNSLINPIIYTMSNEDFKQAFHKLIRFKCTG
Sequence of Sodium-dependent noradrenaline transporter (P23975 whole entry): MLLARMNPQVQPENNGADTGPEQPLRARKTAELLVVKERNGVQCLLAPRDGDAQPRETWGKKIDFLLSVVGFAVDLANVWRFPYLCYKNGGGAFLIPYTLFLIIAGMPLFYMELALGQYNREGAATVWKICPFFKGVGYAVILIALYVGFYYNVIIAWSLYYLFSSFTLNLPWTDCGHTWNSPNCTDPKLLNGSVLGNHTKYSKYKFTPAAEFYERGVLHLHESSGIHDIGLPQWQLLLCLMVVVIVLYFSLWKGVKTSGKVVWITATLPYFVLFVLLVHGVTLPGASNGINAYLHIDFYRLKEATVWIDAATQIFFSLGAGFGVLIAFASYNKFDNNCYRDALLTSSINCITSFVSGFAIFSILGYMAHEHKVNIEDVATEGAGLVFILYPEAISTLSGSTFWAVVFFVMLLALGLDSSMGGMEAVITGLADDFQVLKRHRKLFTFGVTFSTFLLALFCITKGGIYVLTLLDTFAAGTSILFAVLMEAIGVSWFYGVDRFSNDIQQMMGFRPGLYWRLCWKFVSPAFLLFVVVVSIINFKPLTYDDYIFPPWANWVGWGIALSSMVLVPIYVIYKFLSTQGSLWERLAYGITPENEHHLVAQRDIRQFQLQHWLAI
Sequence of D(1A) dopamine receptor (P21728 whole entry): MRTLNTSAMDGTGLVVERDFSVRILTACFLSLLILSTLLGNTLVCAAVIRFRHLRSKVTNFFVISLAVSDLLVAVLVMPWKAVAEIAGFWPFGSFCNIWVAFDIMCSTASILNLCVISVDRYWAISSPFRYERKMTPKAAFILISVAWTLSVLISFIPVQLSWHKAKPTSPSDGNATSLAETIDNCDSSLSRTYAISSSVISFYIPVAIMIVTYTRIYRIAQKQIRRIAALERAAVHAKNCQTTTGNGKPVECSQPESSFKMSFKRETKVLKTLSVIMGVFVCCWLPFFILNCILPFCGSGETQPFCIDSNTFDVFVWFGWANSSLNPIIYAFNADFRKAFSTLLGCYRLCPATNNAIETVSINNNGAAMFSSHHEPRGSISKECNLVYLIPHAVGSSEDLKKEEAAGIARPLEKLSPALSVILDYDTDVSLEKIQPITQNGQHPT

Consider `OC(c1ccccc1)C1CCN(CCc2ccccc2)CC1` (centres undefined) [MDL-11939], for which the inhibitory constant (Ki) in assay [1] was 3420 nM; in assay [2], 2750 nM; in assay [3], 2.89 nM; in assay [4], over 10000 nM; in [5] it was 2600 nM; in assay [6] it was over 10000 nM. The Ki at Histamine H1 receptor was 1600 nM; in assay [7], 1420 nM; at D(4) dopamine receptor it was 3930 nM; in [8], 70.5 nM; in assay [9], 1880 nM; on D(1A) dopamine receptor, 327 nM. The Ki in [10] is 854 nM; on D(1B) dopamine receptor, 2870 nM; in assay [11] it was 1190 nM; in assay [12], 1580 nM; in assay [13] it was 1590 nM.
As for `CN(C)CCON=C(C=Cc1ccc(O)cc1)c1ccccc1F` [NSC_6438382], the Ki turned out to be 2500 nM in assay [1]; 3870 nM in assay [2]; 0.951 nM in assay [3]; 5620 nM in assay [4]; 739 nM in [6]; 2390 nM in [14]. For the same compound, the Ki in assay [8] is 914 nM; on D(3) dopamine receptor, over 10000 nM; at D(1A) dopamine receptor, over 10000 nM; in [15], 1750 nM; in assay [10] it was 8.24 nM; in assay [11], 2120 nM. For the same compound, the Ki in [16] is over 10000 nM; in assay [17], 733 nM; in [18] it was 3670 nM; in assay [19] it was 3010 nM; in assay [13], 726 nM.

For the origin of these results see BindingDB's records for doi:10.1038/sj.npp.1300819 (Case Western Reserve University, 2006).
